The record followed here is ChEMBL document CHEMBL1201862, “PubChem BioAssay data set” (2004).

The structures appear in SMILES notation. Active and inactive are the calls of the source.

The target in assay [1] is Nuclear receptor subfamily 5 group A member 2 (Homo sapiens, UniProt O00482). The format is functional, cell-based.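 Note: HEK293T cells transfected with LRH-1 and a StAR promoter luciferase reporter; potency for inhibitors that lower LRH-1 driven reporter light.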
Assay [2] can be described thus: nonselective StAR promoter luciferase inhibitors – cell-based, luminescence, luciferase reporter, counter-screen for LRH-1 inverse agonist project, dose response (AID 651969). The format is functional.
In the next assay the target is Steroidogenic factor 1 (Homo sapiens, UniProt Q13285). Kind of assay: Counterscreen for inverse agonists of the liver receptor homolog-1 (LRH-1; NR5A2): Luminescence-based cell-based high throughput dose response assay to identify inverse agonists of the Steroidogenic Factor 1 Nuclear Receptor (SF1; NR5A1). The format is functional.
Sequence of Steroidogenic factor 1 (Q13285 whole entry): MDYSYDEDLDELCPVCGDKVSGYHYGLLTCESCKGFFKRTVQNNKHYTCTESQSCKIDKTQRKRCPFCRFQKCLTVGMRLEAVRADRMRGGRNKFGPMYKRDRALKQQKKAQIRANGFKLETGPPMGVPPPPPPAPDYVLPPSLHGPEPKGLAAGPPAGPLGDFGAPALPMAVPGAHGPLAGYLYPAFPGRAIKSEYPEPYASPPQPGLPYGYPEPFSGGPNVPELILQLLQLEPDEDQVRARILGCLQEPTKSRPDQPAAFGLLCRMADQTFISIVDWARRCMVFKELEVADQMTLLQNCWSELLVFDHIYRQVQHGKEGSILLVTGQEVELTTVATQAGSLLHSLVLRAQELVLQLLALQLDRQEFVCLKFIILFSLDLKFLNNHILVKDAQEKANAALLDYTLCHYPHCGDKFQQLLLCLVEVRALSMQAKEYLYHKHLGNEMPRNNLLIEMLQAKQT
For another assay, the target named is Melanocortin receptor 4 (Homo sapiens, UniProt P32245). The format is functional, cell-based.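 Note: Cell-based assay with luminescence read-out, confirmatory dose-response testing for agonist activity of biased ligands at MC4R; human U2OS cells with tagged receptor and beta-arrestin; potency of agonists that increase receptor coupling to beta-arrestin.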
Sequence of Melanocortin receptor 4 (P32245 whole entry): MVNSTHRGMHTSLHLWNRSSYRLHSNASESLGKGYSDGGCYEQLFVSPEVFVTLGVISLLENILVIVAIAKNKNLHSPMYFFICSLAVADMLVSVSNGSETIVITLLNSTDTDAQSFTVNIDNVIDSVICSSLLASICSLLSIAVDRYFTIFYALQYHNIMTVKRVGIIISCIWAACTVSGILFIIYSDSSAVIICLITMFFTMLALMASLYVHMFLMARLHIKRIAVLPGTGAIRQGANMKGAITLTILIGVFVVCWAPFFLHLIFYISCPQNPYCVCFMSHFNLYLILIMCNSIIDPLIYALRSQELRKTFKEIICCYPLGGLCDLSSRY
Assay [3] can be described thus: Luminescence Cell-Based Dose Retest to Confirm Inhibitors of Cancer Stem Cells. [Related pubchem assays (depositor defined):AID2717, AID2721]. The format is functional. Conditions: Homo sapiens.
In assay [4] the target is T1, DNA repair protein RAD52 homolog (Homo sapiens, UniProt P43351).
T1 sequence (P43351 whole entry): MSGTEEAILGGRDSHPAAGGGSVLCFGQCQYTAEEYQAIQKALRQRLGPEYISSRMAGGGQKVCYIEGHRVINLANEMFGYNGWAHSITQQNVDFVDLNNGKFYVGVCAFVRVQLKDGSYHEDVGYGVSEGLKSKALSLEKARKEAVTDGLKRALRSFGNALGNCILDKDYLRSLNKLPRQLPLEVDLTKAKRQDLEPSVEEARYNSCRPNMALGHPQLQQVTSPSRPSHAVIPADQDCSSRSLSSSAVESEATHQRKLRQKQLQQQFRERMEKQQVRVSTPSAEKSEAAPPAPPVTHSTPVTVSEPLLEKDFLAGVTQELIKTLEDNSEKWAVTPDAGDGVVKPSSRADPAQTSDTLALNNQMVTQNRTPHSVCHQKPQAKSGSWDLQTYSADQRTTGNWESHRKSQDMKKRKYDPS
The format is functional, biochemical.

Assay [5] can be described thus: Trypanosoma cruzi growth suppression in host cells – NIH3T3 host cells, beta-gal luminescence, confirmation (AID 2044).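 Note: intracellular parasites grown in NIH/3T3 mouse fibroblasts as host cells; luminescent beta-galactosidase reporter signal from transgenic T. cruzi replicating inside host cells; inhibitors lower the luminescence signal.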 The format is functional, cell-based.
The nature of assay [6]: NIH3T3 cell viability loss – ATP luminescence, mouse fibroblasts, counter-screen, dose response (AID 2010).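 Note: cells exposed to compound for about 90 hours before reading.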 The format is functional, cell-based.
For assay [7], the target named is Photoreceptor-specific nuclear receptor (Homo sapiens, UniProt Q9Y5X4). The format is functional, cell-based.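 Note: CHO-S cells with Gal4-NCOR and VP16-NR2E3 two-hybrid luciferase reporter.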
Sequence of Photoreceptor-specific nuclear receptor (Q9Y5X4 whole entry, the tested form may be a part): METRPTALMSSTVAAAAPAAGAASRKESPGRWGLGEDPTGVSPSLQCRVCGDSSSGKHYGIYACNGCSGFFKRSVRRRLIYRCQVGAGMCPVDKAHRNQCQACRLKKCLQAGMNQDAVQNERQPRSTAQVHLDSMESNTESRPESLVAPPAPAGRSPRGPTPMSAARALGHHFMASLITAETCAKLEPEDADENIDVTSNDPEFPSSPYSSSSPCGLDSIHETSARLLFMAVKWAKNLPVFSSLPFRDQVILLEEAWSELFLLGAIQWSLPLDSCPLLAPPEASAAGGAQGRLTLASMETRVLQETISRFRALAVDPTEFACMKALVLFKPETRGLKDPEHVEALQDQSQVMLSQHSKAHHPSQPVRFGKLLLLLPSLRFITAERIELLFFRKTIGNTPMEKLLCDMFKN
Assay [8] deals with T2, Apoptotic protease-activating factor 1 (Homo sapiens, UniProt O14727).
T2 sequence (O14727 whole entry): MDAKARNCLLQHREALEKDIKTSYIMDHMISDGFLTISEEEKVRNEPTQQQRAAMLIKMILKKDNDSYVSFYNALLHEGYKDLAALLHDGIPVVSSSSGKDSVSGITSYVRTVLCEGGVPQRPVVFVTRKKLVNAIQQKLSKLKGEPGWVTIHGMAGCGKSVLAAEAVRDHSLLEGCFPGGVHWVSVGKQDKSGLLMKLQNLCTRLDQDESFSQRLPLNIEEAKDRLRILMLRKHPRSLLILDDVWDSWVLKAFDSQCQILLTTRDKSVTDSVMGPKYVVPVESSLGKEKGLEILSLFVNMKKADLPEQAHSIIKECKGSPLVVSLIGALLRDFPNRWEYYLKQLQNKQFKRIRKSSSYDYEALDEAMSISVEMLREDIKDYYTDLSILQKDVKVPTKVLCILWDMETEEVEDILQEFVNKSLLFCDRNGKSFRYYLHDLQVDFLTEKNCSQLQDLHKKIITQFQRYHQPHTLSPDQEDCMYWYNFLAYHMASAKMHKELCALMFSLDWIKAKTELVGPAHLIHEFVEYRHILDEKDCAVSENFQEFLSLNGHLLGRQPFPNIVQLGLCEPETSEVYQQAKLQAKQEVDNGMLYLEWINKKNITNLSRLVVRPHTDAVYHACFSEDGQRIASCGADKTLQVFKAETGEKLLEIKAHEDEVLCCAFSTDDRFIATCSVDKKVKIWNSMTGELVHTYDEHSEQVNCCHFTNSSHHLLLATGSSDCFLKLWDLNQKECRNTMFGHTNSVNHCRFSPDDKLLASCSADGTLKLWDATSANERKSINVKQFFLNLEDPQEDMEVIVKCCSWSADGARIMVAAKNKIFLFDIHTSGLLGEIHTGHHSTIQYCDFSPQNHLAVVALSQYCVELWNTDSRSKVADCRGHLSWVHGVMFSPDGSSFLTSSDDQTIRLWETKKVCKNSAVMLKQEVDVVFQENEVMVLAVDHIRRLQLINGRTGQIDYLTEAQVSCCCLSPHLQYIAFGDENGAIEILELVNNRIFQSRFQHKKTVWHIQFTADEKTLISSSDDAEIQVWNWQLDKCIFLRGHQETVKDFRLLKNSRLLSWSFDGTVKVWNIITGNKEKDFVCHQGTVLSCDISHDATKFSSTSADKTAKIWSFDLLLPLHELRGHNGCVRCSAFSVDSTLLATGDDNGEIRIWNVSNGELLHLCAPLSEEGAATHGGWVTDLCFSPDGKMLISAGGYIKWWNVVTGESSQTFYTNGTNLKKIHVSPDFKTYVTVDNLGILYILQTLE
The format is functional.

Assay [9] is described as follows: inhibition of ARNT PAS-B/TACC3 complex formation – biochemical, AlphaScreen, cherry-picked samples, confirmation (AID 651703).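 Note: His-tagged ARNT PAS-B domain paired with GST-TACC3 E629A dimer coactivator fragment; potency of inhibitors that break up the complex and lower AlphaScreen signal.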 The format is functional, Homo sapiens.
The target of assay [10] is DNA repair and recombination protein RAD54-like (Homo sapiens, UniProt Q92698). Kind of assay: RAD54 Holliday junction migration blockers – biochemical, fluorescence, cherry-picked samples, dose series, confirmation (AID 651657). The format is functional.
Sequence of DNA repair and recombination protein RAD54-like (Q92698 whole entry, the tested form may be a part): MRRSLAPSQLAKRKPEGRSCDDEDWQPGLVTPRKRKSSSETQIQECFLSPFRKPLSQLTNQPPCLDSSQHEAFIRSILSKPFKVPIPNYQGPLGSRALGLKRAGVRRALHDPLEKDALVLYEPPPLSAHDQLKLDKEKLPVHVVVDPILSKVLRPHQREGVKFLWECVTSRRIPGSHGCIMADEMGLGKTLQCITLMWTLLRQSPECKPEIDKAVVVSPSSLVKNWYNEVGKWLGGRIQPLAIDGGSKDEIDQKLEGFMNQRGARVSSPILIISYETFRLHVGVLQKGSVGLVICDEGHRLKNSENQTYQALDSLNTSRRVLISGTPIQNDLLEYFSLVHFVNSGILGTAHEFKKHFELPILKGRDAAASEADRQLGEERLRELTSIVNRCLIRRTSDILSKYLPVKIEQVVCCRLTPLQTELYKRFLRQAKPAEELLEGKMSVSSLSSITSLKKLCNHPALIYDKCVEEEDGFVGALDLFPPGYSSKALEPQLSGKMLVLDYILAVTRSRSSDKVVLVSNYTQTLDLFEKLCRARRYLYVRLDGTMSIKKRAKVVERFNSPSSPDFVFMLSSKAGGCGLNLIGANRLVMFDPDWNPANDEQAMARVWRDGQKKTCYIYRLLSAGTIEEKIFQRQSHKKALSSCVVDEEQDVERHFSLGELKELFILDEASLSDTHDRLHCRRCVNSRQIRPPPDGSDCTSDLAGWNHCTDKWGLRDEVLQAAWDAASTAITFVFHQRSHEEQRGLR
A short description of assay [11]: Fluorescence-based cell-based high throughput dose response assay for inhibitors of the interaction of nucleotide-binding oligomerization domain containing 2 (NOD2) and the receptor-interacting serine-threonine kinase 2 (RIPK2). The format is functional. To be noted: Homo sapiens.
A short description of assay [12]: reduced cellular PGC1a acetyl-lysine signal – cell-based, cherry-picked samples, dose response (AID 720514).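 Note: potency may reflect raised or lowered acetylation signal.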 The format is functional.
In another assay the target is Paired box protein Pax-8 (Homo sapiens, UniProt Q06710). Kind of assay: PAX8 transcriptional activity inhibition in RMG-I – RMG-I cells, luciferase, cherry-pick, dose response (AID 687027).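 Note: luciferase reporter driven by Pax8 target thyroperoxidase promoter measured by SteadyGlo luminescence.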 The format is functional, cell-based.
Sequence of Paired box protein Pax-8 (Q06710 whole entry): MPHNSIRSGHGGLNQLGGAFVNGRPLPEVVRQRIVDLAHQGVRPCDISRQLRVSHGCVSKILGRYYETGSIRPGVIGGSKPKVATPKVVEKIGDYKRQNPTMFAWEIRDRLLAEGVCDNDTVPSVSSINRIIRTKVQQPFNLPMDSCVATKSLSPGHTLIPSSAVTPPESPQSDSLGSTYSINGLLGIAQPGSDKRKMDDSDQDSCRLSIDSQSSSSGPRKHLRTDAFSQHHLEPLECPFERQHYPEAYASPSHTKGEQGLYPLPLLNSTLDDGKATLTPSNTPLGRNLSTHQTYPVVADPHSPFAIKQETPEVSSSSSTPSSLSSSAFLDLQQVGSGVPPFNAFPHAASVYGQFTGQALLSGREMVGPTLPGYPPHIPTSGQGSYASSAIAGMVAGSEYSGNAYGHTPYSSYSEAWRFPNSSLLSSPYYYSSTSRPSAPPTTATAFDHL
In the next assay the test system is HEK293. Kind of assay: EBV LMP1 TES2 canonical NF-kB signalling blockers – cell-based, HEK293, luciferase, cherry-pick, dose response (AID 588343). The format is functional. To be noted: Homo sapiens.
In assay [13] the target is Hepatocyte nuclear factor 4-alpha (Homo sapiens, UniProt P41235). The format is functional, cell-based.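 Note: biochemical luminescence-based dose-response counterscreen measuring inhibition of HNF4 dimerization, run alongside a screen for blockers of ABHD5–perilipin-5 interaction; split luciferase complementation of HNF4 fusion proteins in cell lysate measuring dimerization.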
Sequence of Hepatocyte nuclear factor 4-alpha (P41235 whole entry, the tested form may be a part): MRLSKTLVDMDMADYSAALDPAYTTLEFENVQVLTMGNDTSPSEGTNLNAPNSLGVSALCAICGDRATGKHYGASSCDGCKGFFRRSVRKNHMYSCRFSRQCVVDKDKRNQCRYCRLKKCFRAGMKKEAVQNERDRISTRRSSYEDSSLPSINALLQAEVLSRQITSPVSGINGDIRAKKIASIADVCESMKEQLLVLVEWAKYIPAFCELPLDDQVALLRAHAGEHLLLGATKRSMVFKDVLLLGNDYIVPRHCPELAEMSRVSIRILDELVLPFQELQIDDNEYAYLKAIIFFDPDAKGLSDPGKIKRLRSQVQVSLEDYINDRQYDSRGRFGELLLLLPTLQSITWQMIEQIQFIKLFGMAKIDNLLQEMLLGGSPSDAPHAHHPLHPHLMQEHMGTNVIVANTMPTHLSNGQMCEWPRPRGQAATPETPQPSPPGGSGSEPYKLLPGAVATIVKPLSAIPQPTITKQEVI
For the next assay, the system named is CHO. Kind of assay: CHO cell viability loss, potency – luminescence, cytotoxicity control for TLR9-MyD88 binding inhibitor project, dose response (AID 588339).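 Note: CHO cells stably coexpressing TLR9 and MyD88 fusions from primary screen; compound exposure lasted 48 hours before viability readout.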 To be noted: Cricetulus griseus. The format is functional, cell-based, hamster.
Another assay addresses Beta Lactamase (Pseudomonas aeruginosa, UniProt Q932Y6). Kind of assay: BLA reporter interference, concentration series – BLA reporter cells, FRET fluorescence, artefact control for TLR9-MyD88 binding inhibitor project, dose response (AID 588341).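 Note: cell based assay in CHO-K1 cells stably expressing beta-lactamase.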 The format is cell-based.
A short description of assay [14]: intracellular Trypanosoma cruzi inhibitors in host cells – cell-based, plate reader, cherry-pick samples, set 3, dose response (AID 651818).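 Note: compounds incubated with infected cells for about four days.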 The format is functional.
Assay [15] is described as follows: activation of miR-122 Renilla sensor silencing – cell-based, Huh7 psiCHECK-miR122, Renilla luciferase, cherry-picked, dose response (AID 651956).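 Note: huh7 hepatoma cells stably carrying a psiCHECK-2 miR-122 sensor plasmid; renilla luciferase signal reporting endogenous miR-122 activity after 48 h compound exposure.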 The format is functional.
Assay [16] has as its target Heat shock protein HSP 90-alpha (Homo sapiens, UniProt P07900). The format is functional, organism-based.
Assay [17] is described as follows: Counterscreen for inhibitors of Trypanosoma brucei methionyl tRNA synthetase (MetRS): Luminescence-based cell-based high throughput dose response assay to identify compounds that are cytotoxic to Jurkat human T lymphocyte cells. The format is functional.
For assay [18], the target named is T3, Methionyl-tRNA synthetase, putative (Trypanosoma brucei brucei, UniProt Q38C91).
T3 sequence (Q38C91 whole entry): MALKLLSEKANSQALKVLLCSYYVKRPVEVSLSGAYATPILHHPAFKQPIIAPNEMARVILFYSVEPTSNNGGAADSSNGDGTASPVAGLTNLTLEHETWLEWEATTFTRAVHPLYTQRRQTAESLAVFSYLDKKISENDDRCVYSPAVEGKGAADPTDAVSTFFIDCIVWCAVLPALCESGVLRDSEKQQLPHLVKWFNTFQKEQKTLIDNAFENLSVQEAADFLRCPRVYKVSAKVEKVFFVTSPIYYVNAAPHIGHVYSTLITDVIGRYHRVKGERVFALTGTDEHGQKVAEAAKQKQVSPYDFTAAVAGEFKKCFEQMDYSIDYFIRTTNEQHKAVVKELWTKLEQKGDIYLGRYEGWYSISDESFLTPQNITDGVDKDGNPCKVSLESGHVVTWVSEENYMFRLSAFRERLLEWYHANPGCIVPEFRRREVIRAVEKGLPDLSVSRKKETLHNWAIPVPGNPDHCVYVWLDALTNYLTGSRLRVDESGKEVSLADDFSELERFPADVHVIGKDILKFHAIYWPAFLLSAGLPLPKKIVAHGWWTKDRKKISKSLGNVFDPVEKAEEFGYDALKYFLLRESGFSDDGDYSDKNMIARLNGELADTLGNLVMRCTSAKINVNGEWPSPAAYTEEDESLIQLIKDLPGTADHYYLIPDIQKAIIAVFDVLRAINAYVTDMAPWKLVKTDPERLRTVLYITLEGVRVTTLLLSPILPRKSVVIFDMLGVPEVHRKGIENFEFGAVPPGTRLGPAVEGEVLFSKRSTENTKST
The format is functional, Trypanosoma brucei brucei strain 927/4 GUTat10.1.

Assay [19] addresses T3, Methionyl-tRNA synthetase, putative. The format is functional, Trypanosoma brucei brucei strain 927/4 GUTat10.1. This is another data set of the same source.

Sequence of Nuclear receptor subfamily 5 group A member 2 (O00482 whole entry): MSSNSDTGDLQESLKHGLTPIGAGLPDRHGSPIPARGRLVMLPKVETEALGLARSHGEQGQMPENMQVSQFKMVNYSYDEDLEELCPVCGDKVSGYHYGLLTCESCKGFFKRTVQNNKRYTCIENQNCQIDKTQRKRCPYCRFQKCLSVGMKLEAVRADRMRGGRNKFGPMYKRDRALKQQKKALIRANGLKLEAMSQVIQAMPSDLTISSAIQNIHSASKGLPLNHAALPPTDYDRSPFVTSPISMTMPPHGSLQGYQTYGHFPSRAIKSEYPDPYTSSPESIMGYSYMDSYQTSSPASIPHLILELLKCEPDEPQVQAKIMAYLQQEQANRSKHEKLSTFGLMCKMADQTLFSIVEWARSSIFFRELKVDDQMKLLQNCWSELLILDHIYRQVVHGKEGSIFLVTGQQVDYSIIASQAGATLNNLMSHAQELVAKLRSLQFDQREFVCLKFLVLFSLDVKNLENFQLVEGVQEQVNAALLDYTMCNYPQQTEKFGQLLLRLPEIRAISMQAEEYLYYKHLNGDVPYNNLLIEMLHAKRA
Sequence of Beta Lactamase (Q932Y6 whole entry): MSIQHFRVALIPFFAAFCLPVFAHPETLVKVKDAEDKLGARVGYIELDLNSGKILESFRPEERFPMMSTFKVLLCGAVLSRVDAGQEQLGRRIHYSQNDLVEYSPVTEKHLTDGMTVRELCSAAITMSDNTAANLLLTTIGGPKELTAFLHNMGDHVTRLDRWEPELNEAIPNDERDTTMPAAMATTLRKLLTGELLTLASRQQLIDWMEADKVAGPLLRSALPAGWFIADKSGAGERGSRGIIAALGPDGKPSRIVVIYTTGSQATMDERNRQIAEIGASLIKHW

Take `O=C(COC(=O)c1ccc(=O)n(Cc2ccccc2)n1)Nc1ccc2c(c1)OCCO2`: the IC50 (in assay [1]; in [2]; at Steroidogenic factor 1) was 35.9 µM (inactive) each time.

For the compound `CC12CCC3C(CC=C4CC(O)CCC43C)C1C/C(=C\c1ccccc1F)C2=O` (stereo unspecified), the EC50 at Melanocortin receptor 4 is > 89.2 µM (inactive). Further, in assay [3], the AC50 was 2.76 µM (active).

For the compound `Cc1ccc2sc(N(CCCN(C)C)C(=O)CN3C(=O)c4ccccc4C3=O)nc2c1C`, in [4], the AC50 was 13.8 µM (active). The EC50 is 0.225 µM (active) in [5], > 60 µM (not active) in assay [6] and > 89.2 µM (inactive) at Melanocortin receptor 4.

For the compound `COCc1nnc(NC(=O)c2ccc(S(=O)(=O)N(CC(C)C)CC(C)C)cc2)o1`, the IC50 in assay [7] is 8.81 µM (active).

With `C=CC[n+]1c(-c2ccc(Cl)cc2Cl)csc1Nc1ccc(NC(C)=O)cc1`, the IC50 in [7] was 2.75 µM (active).

With `C=CCN1C=C2C(=O)C(C)(OC(=O)CCC(=O)OC)C(=O)C=C2C=C1C1CC1` (stereo unspecified), the IC50 in assay [8] is 39.3 µM (active).

For `COc1ccc2c(c1)Cc1sc(NC(=O)c3ccco3)nc1-2`, in assay [8], the IC50 is 45.8 µM (active).

On to `O=C(O)CSc1cccc2cccnc12`, for which, in [9], the AC50 is 74.5 µM (active).

`CN1CCN(c2nc(-c3ccccn3)nc3ccccc23)CC1`: the AC50 in assay [10] is 53.8 µM (active).

Regarding `C#CCN(C[C@@H]1[C@@H](OC(=O)NCc2ccccc2F)[C@@H](OC(=O)NCc2ccccc2F)Cn2c(=O)ccc(=O)n21)S(=O)(=O)c1ccc(C)cc1`, the IC50 in [11] was 9.77 µM (active); in [13], 8.93 µM (active). In addition, the AC50 is 2.58 µM (active) in assay [12], 5.52 µM (active) at Paired box protein Pax-8 and 7.17 µM (active) with HEK293.

Regarding `O=[N+]([O-])c1ccc(N/N=C/C=C/c2ccco2)cc1`, the IC50 in the assay with CHO was > 49.8 µM (inactive); at Beta Lactamase it was 4.19 µM (active).

Turning to `O=C(NCc1ccccc1)C(c1ccccc1F)n1c(=O)c(-c2ccco2)nc2ccccc21` (stereo unspecified), the IC50 in assay [13] was 2.24 µM (active).

Take `CC(C)NC(=O)Nc1ccc2c(c1)CC(=O)N([C@H](C)CO)C[C@@H](C)[C@@H](CN(C)Cc1ccc(Oc3ccccc3)cc1)O2`: the AC50 in assay [9] is 132 µM (active).

For `C[C@@H]1CN([C@H](C)CO)C(=O)Cc2cc(NS(=O)(=O)c3cccs3)ccc2O[C@@H]1CN(C)S(=O)(=O)c1ccc(Cl)cc1`, the AC50 in assay [14] is 4.11 µM (active).

On to `Cc1ccc(S(=O)(=O)N(C)C[C@@H]2Oc3c(NC(=O)CCCCCC(=O)Nc4ccccc4N)cccc3C(=O)N([C@H](C)CO)C[C@@H]2C)cc1`, for which the AC50 in assay [14] was 6.27 µM (active).

Take `CN(C)CCCNc1nc2cc(-c3ccccc3)sc2c(=O)n1C`: the AC50 in assay [4] was 10.8 µM (active); in [10], 40.3 µM (active).

For `COc1ccc(S(=O)(=O)N(C)C[C@@H]2Oc3cc(-c4cccc(F)c4)ccc3S(=O)(=O)N([C@@H](C)CO)C[C@H]2C)cc1`, the AC50 in [15] was 3.72 µM (active).

Consider `COc1ccc(NC(=O)CS(=O)(=O)c2ccc(C)cc2)c(OC)c1`, for which the IC50 is 12 µM (inactive) in [1], 35.9 µM (inactive) in assay [2] and 10 µM (inactive) at Steroidogenic factor 1.

For the compound `Clc1ccc(COC(Cn2ccnc2)c2ccc(Cl)cc2Cl)c(Cl)c1` (stereo unspecified) [MICONAZOLE], the AC50 in [16] is < 0.195 µM (active). In addition, the figures for the IC50 in assay [17], in [18] and in assay [19] were 33 µM (inactive), 12.9 µM (inactive) and 11.7 µM (inactive), respectively.
